Reference: ChEMBL document CHEMBL1201862, “PubChem BioAssay data set” (2004)
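Method: 48-hour compound exposure of cells in 96-well plates, five concentrations, linear interpolation of endpoints. Abbreviation: GI50, concentration required for 50% inhibition of growth.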 Activity calls are given as the source filed them. No stated cut-off is given here; in the data, active = GI50 up to about 1.1 µM and inactive = higher.

How the values were obtained:
Assay in all cases: DTP human tumour cell line panel, 48 h
EKVX = tested on: EKVX
CCRF-CEM = tested on: CCRF-CEM
SK-OV-3 = tested on: SK-OV-3
HCT-15 = tested on: HCT-15
SK-MEL-2 = tested on: SK-MEL-2
SW-620 = tested on: SW-620
U-251 = tested on: U-251
A549 = tested on: A549
RXF 393 = tested on: RXF 393
COLO 205 = tested on: COLO 205
MOLT-4 = tested on: MOLT-4
OVCAR-5 = tested on: OVCAR-5
SK-MEL-28 = tested on: SK-MEL-28
OVCAR-4 = tested on: OVCAR-4
HCC 2998 = tested on: HCC 2998
LOX IMVI = tested on: LOX IMVI
SF-268 = tested on: SF-268
NCI-H23 = tested on: NCI-H23
UO-31 = tested on: UO-31
M14 = tested on: M14

Row | SMILES | GI50 (EKVX) | GI50 (CCRF-CEM) | GI50 (SK-OV-3) | GI50 (HCT-15) | GI50 (SK-MEL-2) | GI50 (SW-620) | GI50 (U-251) | GI50 (A549) | GI50 (RXF 393) | GI50 (COLO 205) | GI50 (MOLT-4) | GI50 (OVCAR-5) | GI50 (SK-MEL-28) | GI50 (OVCAR-4) | GI50 (HCC 2998) | GI50 (LOX IMVI) | GI50 (SF-268) | GI50 (NCI-H23) | GI50 (UO-31) | GI50 (M14)
1 | Cc1c2cnccc2c(C)c2c1c1ccccc1n2CCCCCCNCc1ccccc1 | 2.11 µM (inactive) | 0.489 µM (active) | 3.8 µM (inactive) | 1.31 µM | 2.22 µM (inactive) | 0.608 µM (active) | 2.05 µM (inactive) | 1.91 µM (inactive) | 2.04 µM (inactive) | 1.43 µM (inactive) | 0.167 µM (active) | 1.75 µM (inactive) | 2.38 µM (inactive) | 0.787 µM (active) | 1.88 µM (inactive) | 1.07 µM (active) | 1.41 µM (inactive) | 1.91 µM (inactive) | 1.99 µM (inactive) | 
2 | Cc1cnc(/C=N\NC(N)=S)c2cccc(N)c12 | 1.1 µM (active) | 0.278 µM (active) | 2.59 µM (inactive) | 0.78 µM | 2.1 µM (inactive) | 3.01 µM (inactive) | 0.604 µM (active) | 2.58 µM (inactive) | 0.728 µM (active) | 1.4 µM (inactive) | 0.34 µM (active) | 5.46 µM (inactive) | 3.27 µM (inactive) | 1.95 µM (inactive) | 0.578 µM (active) | 0.445 µM (active) | 0.565 µM (active) | 0.334 µM (active) | 0.52 µM (active) | 
3 | O=C1C(Cl)N(c2ccccc2)C1c1c[nH]c2ccccc12 (centres undefined) | > 100 µM (inactive) | > 100 µM (inactive) | > 100 µM (inactive) |  | > 100 µM (inactive) | > 100 µM (inactive) | > 100 µM (inactive) | > 100 µM (inactive) | > 100 µM (inactive) | > 100 µM (inactive) | > 100 µM (inactive) | 46 µM (inactive) | > 100 µM (inactive) | > 100 µM (inactive) |  |  | > 100 µM (inactive) | > 100 µM (inactive) | 65.6 µM (inactive) | > 100 µM (inactive)
4 | O=c1[nH]c2c(c3ccccc13)CCc1ccccc1-2 | > 100 µM (inactive) |  | > 100 µM (inactive) | > 100 µM | > 100 µM (inactive) | > 100 µM (inactive) | > 100 µM (inactive) | > 100 µM (inactive) | > 100 µM (inactive) | > 100 µM (inactive) | > 100 µM (inactive) | > 100 µM (inactive) | > 100 µM (inactive) | > 100 µM (inactive) | > 100 µM (inactive) |  | > 100 µM (inactive) | > 100 µM (inactive) | > 100 µM (inactive) | 
5 | C/C(=C1/N=C(c2cc([N+](=O)[O-])ccc2Cl)N(c2ccc(Br)cc2)C1=O)c1cc2ccccc2oc1=O | > 100 µM (inactive) | 16.5 µM (inactive) | 90.4 µM (inactive) | 8.22 µM | 22.6 µM (inactive) | 34.2 µM (inactive) | 48.3 µM (inactive) | 25.9 µM (inactive) |  | 3.38 µM (inactive) | 20.2 µM (inactive) | > 100 µM (inactive) | 60.8 µM (inactive) | 18.3 µM (inactive) | 24 µM (inactive) | 17.3 µM (inactive) | 39.6 µM (inactive) | 38.3 µM (inactive) | 23.7 µM (inactive) | 25.9 µM (inactive)
6 | CC(C)OP(=O)(OC(C)C)/C(I)=N/Nc1ccc([N+](=O)[O-])cc1 | > 100 µM (inactive) | > 100 µM (inactive) | > 100 µM (inactive) | > 100 µM | > 100 µM (inactive) | > 100 µM (inactive) | > 100 µM (inactive) | > 100 µM (inactive) |  | > 100 µM (inactive) | > 100 µM (inactive) | > 100 µM (inactive) | > 100 µM (inactive) | > 100 µM (inactive) | > 100 µM (inactive) |  | > 100 µM (inactive) | > 100 µM (inactive) | 98.4 µM (inactive) | > 100 µM (inactive)
7 | O=C(O)c1cc2sc(C(=O)O)cc2s1 |  | > 100 µM (inactive) | > 100 µM (inactive) | > 100 µM |  | > 100 µM (inactive) | > 100 µM (inactive) | > 100 µM (inactive) | > 100 µM (inactive) | > 100 µM (inactive) | > 100 µM (inactive) | > 100 µM (inactive) |  | > 100 µM (inactive) |  | > 100 µM (inactive) | > 100 µM (inactive) | > 100 µM (inactive) | > 10 µM (inactive) | > 100 µM (inactive)
8 | O=c1oc2ccccc2n1P(=O)(n1c(=O)oc2ccccc21)n1c(=O)oc2ccccc21 | 97.7 µM (inactive) | > 100 µM (inactive) | > 100 µM (inactive) |  | > 100 µM (inactive) | > 100 µM (inactive) | > 100 µM (inactive) | > 100 µM (inactive) | > 100 µM (inactive) | > 100 µM (inactive) | > 100 µM (inactive) | > 100 µM (inactive) | > 100 µM (inactive) | > 100 µM (inactive) | > 100 µM (inactive) | > 100 µM (inactive) | > 100 µM (inactive) | > 100 µM (inactive) | > 100 µM (inactive) | > 100 µM (inactive)
9 | CC[C@](C)(O)C(=O)O[C@H]1C(=O)O[C@@H]2C[C@H]3C(C)=C[C@H](O)[C@@H](O)[C@]3(C)[C@H]3[C@@]4(O)OC[C@]32[C@@H]1[C@@H](C)[C@H]4O | 9.33 µM (inactive) | 4.19 µM (inactive) | 71.9 µM (inactive) | 58.2 µM | 37.7 µM (inactive) | 12.4 µM (inactive) | 12 µM (inactive) | 61.8 µM (inactive) | 0.631 µM (active) | 32.7 µM (inactive) | 6.93 µM (inactive) | 104 µM (inactive) | 17.3 µM (inactive) | 58.6 µM (inactive) | 14.1 µM (inactive) | 14.5 µM (inactive) | 52.5 µM (inactive) | 5.78 µM (inactive) | 96.2 µM (inactive) | 
10 | O=C(CC12C3C4C1C1C2C3C41CC(=O)NO)NO (centres undefined) | > 100 µM (inactive) | 26.7 µM (inactive) |  | 44.2 µM | > 100 µM (inactive) | 38.9 µM (inactive) | 35.7 µM (inactive) | 37.8 µM (inactive) |  | 46.3 µM (inactive) | 45.8 µM (inactive) | > 100 µM (inactive) | 60.4 µM (inactive) |  | > 100 µM (inactive) | 28.9 µM (inactive) | 50 µM (inactive) | 78.2 µM (inactive) |  | 28.8 µM (inactive)
11 | COc1ccc(C(=O)C(C(=O)CCC(=O)Nc2ccc(Cl)c(Cl)c2)c2ccc(OC)cc2)cc1 (centres undefined) | > 100 µM (inactive) | > 100 µM (inactive) |  | > 100 µM | > 100 µM (inactive) | > 100 µM (inactive) | > 100 µM (inactive) | > 100 µM (inactive) | > 100 µM (inactive) |  | > 100 µM (inactive) | > 100 µM (inactive) | > 100 µM (inactive) | > 100 µM (inactive) | > 100 µM (inactive) | > 100 µM (inactive) | > 100 µM (inactive) | > 100 µM (inactive) | > 100 µM (inactive) | > 100 µM (inactive)
12 | C=CCP(=O)(CC=C)C(Cl)Cl |  | > 100 µM (inactive) | > 100 µM (inactive) | > 100 µM | > 100 µM (inactive) | > 100 µM (inactive) | > 100 µM (inactive) | > 100 µM (inactive) |  | > 100 µM (inactive) | > 100 µM (inactive) | > 100 µM (inactive) | > 100 µM (inactive) | > 100 µM (inactive) | > 100 µM (inactive) | > 100 µM (inactive) |  | > 100 µM (inactive) | > 100 µM (inactive) | > 100 µM (inactive)
13 | O=[N+]([O-])C(=C/c1ccccc1)/C(=C\c1ccccc1)[N+](=O)[O-] | 17.3 µM (inactive) | 1.71 µM (inactive) | 20 µM (inactive) |  | 20.1 µM (inactive) | 13.5 µM (inactive) | 15.6 µM (inactive) | 28.6 µM (inactive) | 10.2 µM (inactive) | 15.2 µM (inactive) | 3.2 µM (inactive) | 22 µM (inactive) | 15.9 µM (inactive) | 21.3 µM (inactive) | 21.6 µM (inactive) | 14.7 µM (inactive) | 26.7 µM (inactive) | 15.2 µM (inactive) | 17.5 µM (inactive) | 19.1 µM (inactive)
14 | COc1cc2c(cc1OC)-c1cc3ccccc3c(=O)n1CC2 | 24.6 µM (inactive) | 25 µM (inactive) | 13.3 µM (inactive) |  | 11.7 µM (inactive) | 29.1 µM (inactive) | 16.4 µM (inactive) | 11.4 µM (inactive) | 2.33 µM (inactive) | 37.8 µM (inactive) | 26.1 µM (inactive) | 31.8 µM (inactive) | 27.7 µM (inactive) | 41.6 µM (inactive) | 16.6 µM (inactive) | 10.3 µM (inactive) | 24.9 µM (inactive) | 37.5 µM (inactive) | 19.9 µM (inactive) | 31.2 µM (inactive)
15 | c1ccc(/N=C2\SC3=NCCN3\C2=N/c2ccccc2)cc1 |  | 2.68 µM (inactive) | 34 µM (inactive) | 10 µM | 19.9 µM (inactive) |  | 17.7 µM (inactive) |  | 15.2 µM (inactive) | 15.5 µM (inactive) | 3.47 µM (inactive) | 20.1 µM (inactive) | 17 µM (inactive) |  | 18.7 µM (inactive) |  |  | 20.1 µM (inactive) | 13.5 µM (inactive) | 17.5 µM (inactive)
16 | COc1cc(Br)c(CC2C3=C(CCN2C(=O)C2CCC2)CC(=O)CC3)cc1O (centres undefined) | 30.2 µM (inactive) | 25.5 µM (inactive) | 56.9 µM (inactive) | 18.7 µM | 36.1 µM (inactive) | 34.6 µM (inactive) | 42.7 µM (inactive) | 61.7 µM (inactive) |  | 19.5 µM (inactive) | 26.1 µM (inactive) | > 100 µM (inactive) | 46.7 µM (inactive) |  | 26.7 µM (inactive) | 47.8 µM (inactive) | 31.3 µM (inactive) | 18.2 µM (inactive) | 55.6 µM (inactive) | 33.4 µM (inactive)
